Results published in ChEMBL document CHEMBL1201862, “PubChem BioAssay data set” (2004).
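Interpolation was linear, between the two tested concentrations surrounding the appropriate level; five concentrations were tested over 48 hours in 96-well plates. GI50 is the concentration that inhibits growth by half.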 The source made the active and inactive calls. Rule as the data show it: active = GI50 up to about 1.1 µM and inactive = higher.

Legend:
Test in all cases: NCI tumour cell line growth inhibition, 48 h
OVCAR-5 = tested on: OVCAR-5
MOLT-4 = tested on: MOLT-4
LXFL 529 = tested on: LXFL 529
ACHN = tested on: ACHN
RPMI-8226 = tested on: RPMI-8226
SK-OV-3 = tested on: SK-OV-3
SF-539 = tested on: SF-539
SF-268 = tested on: SF-268
SNB-78 = tested on: SNB-78
HL-60 = tested on: HL-60
NCI-H226 = tested on: NCI-H226
HOP-92 = tested on: HOP-92
UACC-62 = tested on: UACC-62
UACC-257 = tested on: UACC-257
IGROV-1 = tested on: IGROV-1
K562 = tested on: K562
LOX IMVI = tested on: LOX IMVI
COLO 205 = tested on: COLO 205
SNB-75 = tested on: SNB-75
DLD-1 = tested on: DLD-1
A549 = tested on: A549
SNB-19 = tested on: SNB-19
SF-295 = tested on: SF-295
U-251 = tested on: U-251
OVCAR-4 = tested on: OVCAR-4
TK-10 = tested on: TK-10
Malme-3M = tested on: Malme-3M
SK-MEL-2 = tested on: SK-MEL-2
HCT-116 = tested on: HCT-116
SK-MEL-28 = tested on: SK-MEL-28
KM-20L2 = tested on: KM-20L2
DMS-273 = tested on: DMS-273
NCI-H460 = tested on: NCI-H460
CAKI-1 = tested on: CAKI-1
RXF 631 = tested on: RXF 631
NCI-H522 = tested on: NCI-H522
SN12C = tested on: SN12C
M14 = tested on: M14
HOP-18 = tested on: HOP-18
SR = tested on: SR
SW-620 = tested on: SW-620
EKVX = tested on: EKVX
NCI-H23 = tested on: NCI-H23
OVCAR-8 = tested on: OVCAR-8
DMS-114 = tested on: DMS-114
OVCAR-3 = tested on: OVCAR-3
SK-MEL-5 = tested on: SK-MEL-5
KM12 = tested on: KM12
A498 = tested on: A498
786-0 = tested on: 786-0
CCRF-CEM = tested on: CCRF-CEM
HOP-62 = tested on: HOP-62
UO-31 = tested on: UO-31
RXF 393 = tested on: RXF 393
HT-29 = tested on: HT-29
HCT-15 = tested on: HCT-15
HCC 2998 = tested on: HCC 2998
M19-MEL = tested on: M19-MEL
XF498 = tested on: XF498

## Cc1cc2occ(-c3ccc(Cl)cc3)c2c(=O)o1
OVCAR-5
  GI50: > 100 µM (inactive)
MOLT-4
  GI50: 67.9 µM (inactive)
LXFL 529
  GI50: > 100 µM (inactive)
ACHN
  GI50: > 100 µM (inactive)
RPMI-8226
  GI50: 61.4 µM (inactive)
SK-OV-3
  GI50: > 100 µM (inactive)
SF-539
  GI50: > 100 µM (inactive)
SF-268
  GI50: > 100 µM (inactive)
SNB-78
  GI50: > 100 µM (inactive)
HL-60
  GI50: > 100 µM (inactive)
NCI-H226
  GI50: > 100 µM (inactive)
HOP-92
  GI50: > 100 µM (inactive)
UACC-62
  GI50: > 100 µM (inactive)
UACC-257
  GI50: > 100 µM (inactive)
IGROV-1
  GI50: > 100 µM (inactive)
K562
  GI50: > 100 µM (inactive)
LOX IMVI
  GI50: 72.8 µM (inactive)
COLO 205
  GI50: > 100 µM (inactive)
SNB-75
  GI50: 55.7 µM (inactive)
DLD-1
  GI50: 76 µM (inactive)
A549
  GI50: > 100 µM (inactive)
SNB-19
  GI50: > 100 µM (inactive)
SF-295
  GI50: > 100 µM (inactive)
U-251
  GI50: > 100 µM (inactive)
OVCAR-4
  GI50: > 100 µM (inactive)
TK-10
  GI50: > 100 µM (inactive)
Malme-3M
  GI50: > 100 µM (inactive)
SK-MEL-2
  GI50: > 100 µM (inactive)
HCT-116
  GI50: > 100 µM (inactive)
SK-MEL-28
  GI50: > 100 µM (inactive)
KM-20L2
  GI50: > 100 µM (inactive)
DMS-273
  GI50: > 100 µM (inactive)
NCI-H460
  GI50: > 100 µM (inactive)
CAKI-1
  GI50: 98.6 µM (inactive)
RXF 631
  GI50: > 100 µM (inactive)
NCI-H522
  GI50: 66.5 µM (inactive)
SN12C
  GI50: > 100 µM (inactive)
M14
  GI50: 88.1 µM (inactive)
HOP-18
  GI50: > 100 µM (inactive)
SR
  GI50: 38.1 µM (inactive)
SW-620
  GI50: > 100 µM (inactive)
EKVX
  GI50: > 100 µM (inactive)
NCI-H23
  GI50: > 100 µM (inactive)
OVCAR-8
  GI50: > 100 µM (inactive)
DMS-114
  GI50: > 100 µM (inactive)
OVCAR-3
  GI50: > 100 µM (inactive)
SK-MEL-5
  GI50: > 100 µM (inactive)
KM12
  GI50: > 100 µM (inactive)
A498
  GI50: > 100 µM (inactive)
786-0
  GI50: > 100 µM (inactive)
CCRF-CEM
  GI50: > 100 µM (inactive)
HOP-62
  GI50: > 100 µM (inactive)
UO-31
  GI50: 58.1 µM (inactive)
RXF 393
  GI50: > 100 µM (inactive)
HT-29
  GI50: > 100 µM (inactive)
HCT-15
  GI50: > 100 µM

## CCCN(CCC)c1c([N+](=O)[O-])cc(S(N)(=O)=O)cc1[N+](=O)[O-] [ORYZALIN]
OVCAR-5
  GI50: 22.4 µM (inactive)
MOLT-4
  GI50: 20.7 µM (inactive)
LXFL 529
  GI50: 16.1 µM (inactive)
ACHN
  GI50: 17.9 µM (inactive)
RPMI-8226
  GI50: 26.7 µM (inactive)
SK-OV-3
  GI50: 17.4 µM (inactive)
SF-539
  GI50: 19.7 µM (inactive)
SF-268
  GI50: 18.3 µM (inactive)
NCI-H226
  GI50: 23.7 µM (inactive)
UACC-62
  GI50: 18.3 µM (inactive)
UACC-257
  GI50: 18.9 µM (inactive)
IGROV-1
  GI50: 7.29 µM (inactive)
K562
  GI50: 13.5 µM (inactive)
LOX IMVI
  GI50: 17.5 µM (inactive)
COLO 205
  GI50: 21.8 µM (inactive)
HCC 2998
  GI50: 18.5 µM (inactive)
SNB-75
  GI50: 18.3 µM (inactive)
DLD-1
  GI50: 19.1 µM (inactive)
A549
  GI50: 16.4 µM (inactive)
SNB-19
  GI50: 19.7 µM (inactive)
M19-MEL
  GI50: 20.2 µM (inactive)
SF-295
  GI50: 16.7 µM (inactive)
U-251
  GI50: 12 µM (inactive)
OVCAR-4
  GI50: 14 µM (inactive)
Malme-3M
  GI50: 17.7 µM (inactive)
SK-MEL-2
  GI50: 16.4 µM (inactive)
HCT-116
  GI50: 18 µM (inactive)
SK-MEL-28
  GI50: 20.7 µM (inactive)
KM-20L2
  GI50: 19.3 µM (inactive)
XF498
  GI50: 16.6 µM (inactive)
DMS-273
  GI50: 18.8 µM (inactive)
NCI-H460
  GI50: 14.6 µM (inactive)
CAKI-1
  GI50: 13.6 µM (inactive)
RXF 631
  GI50: 18.6 µM (inactive)
NCI-H522
  GI50: 16.7 µM (inactive)
SN12C
  GI50: 17.4 µM (inactive)
M14
  GI50: 16.9 µM (inactive)
HOP-18
  GI50: 19.2 µM (inactive)
SR
  GI50: 23.5 µM (inactive)
SW-620
  GI50: 20.7 µM (inactive)
EKVX
  GI50: 21.3 µM (inactive)
NCI-H23
  GI50: 16.1 µM (inactive)
OVCAR-8
  GI50: 19.1 µM (inactive)
DMS-114
  GI50: 19 µM (inactive)
OVCAR-3
  GI50: 16.9 µM (inactive)
SK-MEL-5
  GI50: 19.3 µM (inactive)
KM12
  GI50: 17.8 µM (inactive)
786-0
  GI50: 16.7 µM (inactive)
CCRF-CEM
  GI50: 16.8 µM (inactive)
HOP-62
  GI50: 17.2 µM (inactive)
UO-31
  GI50: 18.6 µM (inactive)
HT-29
  GI50: 18.5 µM (inactive)
HCT-15
  GI50: 17.5 µM

## Cc1ccccc1NC(=O)C(=O)C(C(=O)c1ccccc1F)C1OC(=O)c2ccccc21 (configuration not stated)
OVCAR-5
  GI50: 41.8 µM (inactive)
MOLT-4
  GI50: 9.59 µM (inactive)
LXFL 529
  GI50: 13.4 µM (inactive)
ACHN
  GI50: 43.7 µM (inactive)
RPMI-8226
  GI50: 11.9 µM (inactive)
SK-OV-3
  GI50: 34.1 µM (inactive)
SF-539
  GI50: 8.32 µM (inactive)
SF-268
  GI50: 18.9 µM (inactive)
SNB-78
  GI50: 13.3 µM (inactive)
HL-60
  GI50: 16.3 µM (inactive)
NCI-H226
  GI50: 3.38 µM (inactive)
HOP-92
  GI50: 33.3 µM (inactive)
UACC-257
  GI50: 21.1 µM (inactive)
K562
  GI50: 24.3 µM (inactive)
LOX IMVI
  GI50: 16 µM (inactive)
COLO 205
  GI50: 21.3 µM (inactive)
HCC 2998
  GI50: 11.5 µM (inactive)
SNB-75
  GI50: 8.39 µM (inactive)
DLD-1
  GI50: 22.2 µM (inactive)
A549
  GI50: 42.2 µM (inactive)
SNB-19
  GI50: 10.1 µM (inactive)
U-251
  GI50: 7.53 µM (inactive)
OVCAR-4
  GI50: 18.4 µM (inactive)
TK-10
  GI50: 43 µM (inactive)
Malme-3M
  GI50: 18.8 µM (inactive)
SK-MEL-2
  GI50: 24.7 µM (inactive)
HCT-116
  GI50: 15 µM (inactive)
SK-MEL-28
  GI50: 16.5 µM (inactive)
KM-20L2
  GI50: 38.3 µM (inactive)
DMS-273
  GI50: 23.3 µM (inactive)
NCI-H460
  GI50: 32.9 µM (inactive)
CAKI-1
  GI50: 21.1 µM (inactive)
RXF 631
  GI50: 26.9 µM (inactive)
NCI-H522
  GI50: 5.68 µM (inactive)
SN12C
  GI50: 25 µM (inactive)
M14
  GI50: 16.6 µM (inactive)
HOP-18
  GI50: 23.4 µM (inactive)
SW-620
  GI50: 34.9 µM (inactive)
EKVX
  GI50: 96.6 µM (inactive)
NCI-H23
  GI50: 10.3 µM (inactive)
OVCAR-8
  GI50: > 10 µM (inactive)
DMS-114
  GI50: 10.2 µM (inactive)
OVCAR-3
  GI50: 24.6 µM (inactive)
SK-MEL-5
  GI50: 22.4 µM (inactive)
KM12
  GI50: 23 µM (inactive)
A498
  GI50: 45.8 µM (inactive)
786-0
  GI50: 16.3 µM (inactive)
CCRF-CEM
  GI50: 10.6 µM (inactive)
HOP-62
  GI50: 17.3 µM (inactive)
UO-31
  GI50: 15.8 µM (inactive)
RXF 393
  GI50: 8.53 µM (inactive)
HT-29
  GI50: 40.3 µM (inactive)
HCT-15
  GI50: 24.5 µM
